Results published in patent US20230382926A1, “COMPOUNDS AND USES THEREOF” (The University of The West Indies, priority 2022, published 2023).

Legend:
[1] = test system: Multidrug resistant Pseudomonas aeruginosa; test: Broth microdilution minimum inhibitory concentration; format: cell-based; details: compound alone
Experimental: (§1) Antibacterial activity of the synthesized compounds was determined following guidelines established by the Clinical and Laboratory Standards Institute M07-A10 (CLSI 2015), following the broth microdilution method. Briefly, the test articles were dissolved in 100% DMSO, diluted by 2-fold serial titrations in the same vehicle (100% DMSO), for a total of 11 concentrations. A 4 μL aliquot of each dilution was then added to 196 μL of broth medium seeded with the bacterial suspension in wells of a 96 well plate (bacterial count: 2×10^5 to 8×10^5 colony forming units/mL final). The highest test substance concentration was 1028 μg/mL, and the final vehicle concentration was 2 percent. Following incubation, the test plate was visually examined, and each well was scored for growth or complete inhibition of growth. The minimum inhibitory concentration was determined as the lowest concentration were no growth of the bacterial was observed. Each test article was assayed in duplicate.

[2] = test system: Vancomycin resistant Enterococcus faecalis; test: as above; format: cell-based; details: compound alone
Experimental: as §1

[3] = test system: Methicillin resistant Staphylococcus aureus; test: as above; format: cell-based; details: compound alone
Experimental: as §1

[4] = test system: Carbapenem resistant Acinetobacter baumannii; test: as above; format: cell-based; details: compound alone
Experimental: as §1

[5] = test system: Carbapenem resistant Klebsiella pneumoniae; test: as above; format: cell-based; details: compound alone
Experimental: as §1

[6] = test system: P. aeruginosa; test: Rescue concentration of substituted phenyl azaindole derivatives; format: cell-based; details: Imipenem fixed at 1 μg/mL
Experimental: (§2) The antibiotic adjuvant activity of the SPazaBIMs were evaluated in combination with representative antibiotics (representing 13 antibiotic classes) against the 19 pathogens strains listed in Table 3. To assess the adjuvant properties of the SP-azaBIM molecules, a modified checkerboard minimum inhibitory concentration assay was used. A fixed concentration of the respective antibiotic (susceptible breakpoint concentration) was mixed with a twofold dilution series of the test SP-azaBIM (FIG. 1). This was to determine the concentration of SP-azaBIM needed potentiate the antibiotic at a clinically susceptible breakpoint concentration. Antibiotic susceptible breakpoint concentrations for the respective bacteria were determined using Clinical Laboratory Standards Institute (CLSI) criteria M100 ED31.
(§3) In this study, only those antibiotics to which the bacterial was classed as resistant were included in the adjuvant assays. In this assay we recorded the rescue concentration of the SP-BIM for a respective antibiotic. The rescue concentration was defined as the concentration of the adjuvant that reduces the minimum inhibitory concentration (MIC) of an antibiotic to the susceptibility breakpoint.
(§4) Immediately prior to testing, the respective antibiotic and SP-azaBIM was dissolved in sterile deionised water at 20× the required test concentration. Each microtiter well was then inoculated with 180 μl of bacterial inoculum of 10^6 CFU/ml in ca-MHB, and 10 μl each if the antibiotic and SP-azaBIM was added to the plates. These plates were then incubated at 35° C. for 24 h under aerobic conditions. A similar method was followed for the fastidious pathogens except that they were cultured in ca-MHB with 5% sheep blood and 5% CO2.
Bacterial growth was visually inspected after the incubation period and the rescue concentration of the test SP-azaBIM was determined as the lowest concentration of the compound needed to reduce bacterial growth by 99.99% at the susceptible breakpoint concentration of the antibiotic. […] If the bacteria can tolerate this concentration in vitro, then the bacteria has an intermediate or absolute resistance toward that antibiotic. […]
(§5) Phenyl azaindole compounds are also tested for their adjuvant activities and the method is shown in Example 39.

[7] = test system: K. pneumoniae; test: as above; format: cell-based; details: for Rescue concentration, K. pneumoniae Ciprofloxacin (1 μg/mL): Ciprofloxacin fixed at 1 μg/mL; for Rescue concentration, K. pneumoniae Imipenem (1 μg/mL): Imipenem fixed at 1 μg/mL
Experimental: as §2, §3, §4
(§6) Bacterial growth was visually inspected after the incubation period and the rescue concentration of the test SP-azaBIM was determined as the lowest concentration of the compound needed to reduce bacterial growth by 99.99% at the susceptible breakpoint concentration of the antibiotic. For example, CLSI states that Pseudomonas aeruginosa is susceptible to the Imipenem if the MIC is ≤2 μg mL^−1. If the bacteria can tolerate this concentration in vitro, then the bacteria has an intermediate or absolute resistance toward that antibiotic. The goal was to determine the concentration of SP-azaBIM needed to cause P. aeruginosa death at 2 μg mL^−1 of Imipenem therefore restoring susceptibility of the bacteria to toward the antibiotic.
as §5

[8] = test system: MRSA; test: as above; format: cell-based, Staphylococcus aureus; details: Amoxicillin fixed at 2 μg/mL
Experimental: as §2, §3, §4, §6, §5

O=[N+]([O-])c1cccc(C(O)c2c[nH]c3cnc(Cl)cc23)c1 (stereo not drawn) [3NO2-5Cl-6aza-OH, (5-chloro-1H-pyrrolo[2,3-c]pyridin-3-yl)(3-nitrophenyl)methanol]
MIC [1]: < 1020 µg/mL
MIC [2]: < 1020 µg/mL
MIC [3]: < 1020 µg/mL
MIC [4]: < 1020 µg/mL
MIC [5]: < 1020 µg/mL
Rescue concentration, P. aeruginosa Imipenem (1 μg/mL) [6]: <256 µg/mL
Rescue concentration, K. pneumoniae Ciprofloxacin (1 μg/mL) [7]: <256 µg/mL
Rescue concentration, K. pneumoniae Imipenem (1 μg/mL) [7]: <256 µg/mL
Rescue concentration, MRSA Amoxicillin (2 μg/mL) [8]: <256 µg/mL

O=[N+]([O-])c1cccc(C(O)c2c[nH]c3c(Cl)nccc23)c1 (stereo not drawn) [3NO2-7Cl-6aza, (7-chloro-1H-pyrrolo[2,3-c]pyridin-3-yl)(3-nitrophenyl)methanol]
MIC [1]: < 1020 µg/mL
MIC [2]: < 1020 µg/mL
MIC [3]: < 1020 µg/mL
MIC [4]: < 1020 µg/mL
MIC [5]: < 1020 µg/mL
Rescue concentration, P. aeruginosa Imipenem (1 μg/mL) [6]: <256 µg/mL
Rescue concentration, K. pneumoniae Ciprofloxacin (1 μg/mL) [7]: <256 µg/mL
Rescue concentration, K. pneumoniae Imipenem (1 μg/mL) [7]: <256 µg/mL
Rescue concentration, MRSA Amoxicillin (2 μg/mL) [8]: 32 µg/mL

Oc1ccc(C(O)c2c[nH]c3cnc(Cl)cc23)cc1 (stereo not drawn) [4OH-5Cl-6aza-OH, 4-((5-chloro-1H-pyrrolo[2,3-c]pyridin-3-yl)(hydroxy)methyl)phenol]
MIC [1]: < 1020 µg/mL
MIC [2]: < 1020 µg/mL
MIC [3]: < 1020 µg/mL
MIC [4]: < 1020 µg/mL
MIC [5]: < 1020 µg/mL
Rescue concentration, P. aeruginosa Imipenem (1 μg/mL) [6]: <256 µg/mL
Rescue concentration, K. pneumoniae Ciprofloxacin (1 μg/mL) [7]: <256 µg/mL
Rescue concentration, K. pneumoniae Imipenem (1 μg/mL) [7]: 256 µg/mL
Rescue concentration, MRSA Amoxicillin (2 μg/mL) [8]: 16 µg/mL

Oc1ccc(C(O)c2c[nH]c3cnccc23)cc1 (stereo not drawn) [Compound 4OH-6aza-OH, 4-(hydroxy(1H-pyrrolo[2,3-c]pyridin-3-yl)methyl)phenol]
MIC [1]: < 1020 µg/mL
MIC [2]: < 1020 µg/mL
MIC [3]: < 1020 µg/mL
MIC [4]: < 1020 µg/mL
MIC [5]: < 1020 µg/mL
Rescue concentration, P. aeruginosa Imipenem (1 μg/mL) [6]: 256 µg/mL
Rescue concentration, K. pneumoniae Ciprofloxacin (1 μg/mL) [7]: <256 µg/mL
Rescue concentration, K. pneumoniae Imipenem (1 μg/mL) [7]: <256 µg/mL
Rescue concentration, MRSA Amoxicillin (2 μg/mL) [8]: 32 µg/mL

O=[N+]([O-])c1cccc(C(O)c2c[nH]c3ncc(F)cc23)c1 (stereo not drawn) [3NO2-5Fl-7aza-OH, (5-fluoro-1H-pyrrolo[2,3-b]pyridin-3-yl)(3-nitrophenyl)methanol]
MIC [1]: < 1020 µg/mL
MIC [2]: < 1020 µg/mL
MIC [3]: < 1020 µg/mL
MIC [4]: < 1020 µg/mL
MIC [5]: < 1020 µg/mL
Rescue concentration, P. aeruginosa Imipenem (1 μg/mL) [6]: <256 µg/mL
Rescue concentration, K. pneumoniae Ciprofloxacin (1 μg/mL) [7]: <256 µg/mL
Rescue concentration, K. pneumoniae Imipenem (1 μg/mL) [7]: <256 µg/mL
Rescue concentration, MRSA Amoxicillin (2 μg/mL) [8]: 128 µg/mL

O=Cc1cccc(C(O)c2c[nH]c3c(Cl)nccc23)c1 (stereo not drawn) [iso-7Cl-6aza-OH, 3-((7-chloro-1H-pyrrolo[2,3-c]pyridin-3-yl)(hydroxy)methyl)benzaldehyde]
MIC [1]: < 1020 µg/mL
MIC [2]: < 1020 µg/mL
MIC [3]: < 1020 µg/mL
MIC [4]: < 1020 µg/mL
MIC [5]: < 1020 µg/mL
Rescue concentration, P. aeruginosa Imipenem (1 μg/mL) [6]: <256 µg/mL
Rescue concentration, K. pneumoniae Ciprofloxacin (1 μg/mL) [7]: <256 µg/mL
Rescue concentration, K. pneumoniae Imipenem (1 μg/mL) [7]: <256 µg/mL
Rescue concentration, MRSA Amoxicillin (2 μg/mL) [8]: 32 µg/mL

O=[N+]([O-])c1cccc(C(c2c[nH]c3cnccc23)c2c[nH]c3cnccc23)c1 [3NO2-Bis-6aza, 3,3′-((3-nitrophenyl)methylene)bis(1H-pyrrolo[2,3-c]pyridine)]
MIC [1]: < 1020 µg/mL
MIC [2]: < 1020 µg/mL
MIC [3]: < 1020 µg/mL
MIC [4]: < 1020 µg/mL
MIC [5]: < 1020 µg/mL
Rescue concentration, P. aeruginosa Imipenem (1 μg/mL) [6]: <256 µg/mL
Rescue concentration, K. pneumoniae Ciprofloxacin (1 μg/mL) [7]: <256 µg/mL
Rescue concentration, K. pneumoniae Imipenem (1 μg/mL) [7]: <256 µg/mL
Rescue concentration, MRSA Amoxicillin (2 μg/mL) [8]: <256 µg/mL
